Where “and” joins values, the source holds several entries; their conditions need not be identical. Equal entries are not always repeated. ± gives the expanded uncertainty stated by the source.
Details: for mass density: Liquid, isochoric method; for surface tension liquid-gas: Ring tensiometer

CCCCCCCCCCCCCC[P+](CCCCCC)(CCCCCC)CCCCCC.O=S(=O)([N-]S(=O)(=O)C(F)(F)F)C(F)(F)F
mass density (219.01 K, 845.2 kPa): 1126.5 ± 1.5 kg/m3
mass density (225.43 K, 10086 kPa): 1125.99 ± 1.5 kg/m3
mass density (225.43 K, 30200 kPa): 1132.83 ± 1.5 kg/m3
mass density (232.16 K, 19479 kPa): 1125.46 ± 1.5 kg/m3
mass density (233.47 K, 2869.4 kPa): 1117.39 ± 1.5 kg/m3
mass density (239.5 K, 10003 kPa): 1116.86 ± 1.5 kg/m3
mass density (239.51 K, 29986 kPa): 1124.87 ± 1.5 kg/m3
mass density (246.7 K, 20172 kPa): 1116.37 ± 1.5 kg/m3
mass density (247.35 K, 40212 kPa): 1124.27 ± 1.5 kg/m3
mass density (247.71 K, 1577.7 kPa): 1107.13 ± 1.5 kg/m3
mass density (254.34 K, 29850 kPa): 1115.68 ± 1.5 kg/m3
mass density (254.34 K, 29998 kPa): 1115.78 ± 1.5 kg/m3
mass density (254.36 K, 9848.1 kPa): 1106.63 ± 1.5 kg/m3
mass density (255.79 K, 51007 kPa): 1123.62 ± 1.5 kg/m3
mass density (262.3 K, 20026 kPa): 1106.02 ± 1.5 kg/m3
mass density (262.46 K, 40028 kPa): 1115.06 ± 1.5 kg/m3
mass density (263.55 K, 901 kPa): 1095.02 ± 1.5 kg/m3
mass density (268.29 K, 100 kPa): 1090.79 ± 0.8 kg/m3
mass density (270.61 K, 30010 kPa): 1105.4 ± 1.5 kg/m3
mass density (270.69 K, 9770.1 kPa): 1094.49 ± 1.5 kg/m3
mass density (270.95 K, 49862 kPa): 1114.43 ± 1.5 kg/m3
mass density (273.26 K, 100 kPa): 1087.18 ± 0.8 kg/m3
surface tension liquid-gas (273.49 K): 31.49 ± 0.5 mN/m
surface tension liquid-gas (273.52 K): 31.51 ± 0.5 mN/m
surface tension liquid-gas (278.33 K): 31.18 ± 0.49 mN/m
mass density (278.4 K, 100 kPa): 1083.71 ± 0.8 kg/m3
surface tension liquid-gas (278.52 K): 31.21 ± 0.49 mN/m
mass density (279.46 K, 39911 kPa): 1104.75 ± 1.5 kg/m3
mass density (280.16 K, 20417 kPa): 1093.79 ± 1.5 kg/m3
mass density (281.02 K, 1048.9 kPa): 1082.63 ± 1.4 kg/m3
mass density (283.3 K, 100 kPa): 1079.84 ± 0.79 kg/m3
surface tension liquid-gas (283.37 K): 30.85 ± 0.49 mN/m
surface tension liquid-gas (283.39 K): 30.94 ± 0.49 mN/m
surface tension liquid-gas (288.38 K): 30.66 ± 0.49 mN/m
surface tension liquid-gas (288.5 K): 30.56 ± 0.48 mN/m
mass density (288.55 K, 100 kPa): 1076.14 ± 0.79 kg/m3
mass density (288.56 K, 49907 kPa): 1104.08 ± 1.5 kg/m3
mass density (288.91 K, 10149 kPa): 1082.04 ± 1.4 kg/m3
mass density (288.92 K, 30030 kPa): 1093.15 ± 1.5 kg/m3
mass density (292.93 K, 100 kPa): 1072.95 ± 0.79 kg/m3
surface tension liquid-gas (293.37 K): 30.35 ± 0.48 mN/m
mass density (298 K, 39766 kPa): 1092.49 ± 1.5 kg/m3
mass density (298.17 K, 191.9 kPa): 1068.8 ± 1.4 kg/m3
mass density (298.17 K, 19640 kPa): 1081.39 ± 1.4 kg/m3
mass density (298.19 K, 100 kPa): 1068.54 ± 0.78 kg/m3
surface tension liquid-gas (298.24 K): 30.13 ± 0.48 mN/m
surface tension liquid-gas (298.25 K): 30.11 ± 0.48 mN/m
mass density (299.08 K, 1497.9 kPa): 1069.18 ± 1.4 kg/m3
surface tension liquid-gas (303.15 K): 29.82 ± 0.47 mN/m
surface tension liquid-gas (303.17 K): 29.89 ± 0.47 mN/m
mass density (303.24 K, 100 kPa): 1065.2 ± 0.78 kg/m3
mass density (307.5 K, 49581 kPa): 1091.81 ± 1.5 kg/m3
mass density (307.85 K, 10007 kPa): 1068.57 ± 1.4 kg/m3
mass density (308.01 K, 100 kPa): 1061.72 ± 0.78 kg/m3
mass density (308.08 K, 30024 kPa): 1080.67 ± 1.4 kg/m3
surface tension liquid-gas (308.18 K): 29.56 ± 0.47 mN/m
surface tension liquid-gas (308.21 K): 29.37 ± 0.47 mN/m
mass density (309.27 K, 1043.1 kPa): 1061.06 ± 1.4 kg/m3
mass density (313.17 K, 100 kPa): 1057.68 ± 0.77 kg/m3
surface tension liquid-gas (313.21 K): 29.15 ± 0.46 mN/m
surface tension liquid-gas (313.22 K): 29.24 ± 0.46 mN/m
mass density (318.03 K, 39710 kPa): 1079.97 ± 1.4 kg/m3
mass density (318.05 K, 100 kPa): 1054.69 ± 0.77 kg/m3
mass density (318.08 K, 19797 kPa): 1067.86 ± 1.4 kg/m3
mass density (318.16 K, 9063.9 kPa): 1060.46 ± 1.4 kg/m3
surface tension liquid-gas (318.2 K): 29.03 ± 0.46 mN/m
surface tension liquid-gas (318.23 K): 28.86 ± 0.46 mN/m
mass density (318.96 K, 1508.5 kPa): 1054.33 ± 1.4 kg/m3
mass density (323.08 K, 100 kPa): 1051.01 ± 0.77 kg/m3
surface tension liquid-gas (323.19 K): 28.56 ± 0.46 mN/m
surface tension liquid-gas (323.28 K): 28.54 ± 0.46 mN/m
surface tension liquid-gas (328.11 K): 28.34 ± 0.46 mN/m
surface tension liquid-gas (328.28 K): 27.99 ± 0.46 mN/m
mass density (328.31 K, 100 kPa): 1047.34 ± 0.77 kg/m3
mass density (328.73 K, 10024 kPa): 1053.67 ± 1.4 kg/m3
mass density (328.99 K, 49945 kPa): 1079.21 ± 1.4 kg/m3
mass density (329.13 K, 30007 kPa): 1067.09 ± 1.4 kg/m3
mass density (329.82 K, 733.9 kPa): 1046.15 ± 1.4 kg/m3
mass density (329.83 K, 19983 kPa): 1059.65 ± 1.4 kg/m3
mass density (333.03 K, 100 kPa): 1044.1 ± 0.76 kg/m3
surface tension liquid-gas (333.15 K): 27.89 ± 0.45 mN/m and 27.98 ± 0.45 mN/m
surface tension liquid-gas (338.1 K): 27.59 ± 0.45 mN/m
surface tension liquid-gas (338.13 K): 27.94 ± 0.45 mN/m
mass density (338.51 K, 100 kPa): 1040.38 ± 0.76 kg/m3
mass density (339.97 K, 40003 kPa): 1066.34 ± 1.4 kg/m3
mass density (340.03 K, 20057 kPa): 1052.9 ± 1.4 kg/m3
mass density (340.84 K, 1346 kPa): 1038.9 ± 1.4 kg/m3
mass density (340.84 K, 10036 kPa): 1045.42 ± 1.4 kg/m3
mass density (341.21 K, 30097 kPa): 1058.87 ± 1.4 kg/m3
mass density (342.84 K, 100 kPa): 1037.08 ± 0.76 kg/m3
surface tension liquid-gas (343 K): 27.46 ± 0.44 mN/m
surface tension liquid-gas (343.05 K): 27.3 ± 0.44 mN/m
surface tension liquid-gas (348 K): 27.14 ± 0.44 mN/m
surface tension liquid-gas (348.34 K): 26.92 ± 0.44 mN/m
mass density (348.34 K, 100 kPa): 1033.83 ± 0.76 kg/m3
mass density (350.84 K, 50030 kPa): 1065.58 ± 1.4 kg/m3
mass density (353.13 K, 100 kPa): 1030.2 ± 0.75 kg/m3
mass density (353.15 K, 20345 kPa): 1044.59 ± 1.4 kg/m3
mass density (353.15 K, 31348 kPa): 1052.01 ± 1.4 kg/m3
mass density (353.15 K, 40207 kPa): 1058.06 ± 1.4 kg/m3
mass density (353.16 K, 11244 kPa): 1038.09 ± 1.4 kg/m3
surface tension liquid-gas (353.32 K): 26.56 ± 0.43 mN/m
surface tension liquid-gas (353.33 K): 26.79 ± 0.44 mN/m
surface tension liquid-gas (358.1 K): 26.38 ± 0.43 mN/m
mass density (358.18 K, 100 kPa): 1026.93 ± 0.75 kg/m3
surface tension liquid-gas (358.49 K): 26.45 ± 0.43 mN/m
mass density (364.28 K, 100 kPa): 1022.11 ± 0.75 kg/m3
surface tension liquid-gas (364.76 K): 26.01 ± 0.43 mN/m
surface tension liquid-gas (364.97 K): 25.93 ± 0.43 mN/m

Source: the NIST ThermoML archive (doi:10.1021/je500239t)
